According to paper PMC10331583, “Control of fibrosis with enhanced safety via asymmetric inhibition of prolyl‐tRNA synthetase 1” (EMBO Molecular Medicine, 2023):
Where two headings read alike, the source gives them in different places.

How the values were obtained:
WI‐26 VA4 cells [1] = test: CellTiter‐Glo assay (cytotoxicity)
Procedure: After 24 h, the cells were incubated with various concentrations of compounds for 48 h. The level of ATP as a measure of cell viability was determined using a CellTiter‐Glo® luminescent cell viability assay kit (Promega, G7571) following the manufacturer's instructions.
WI‐26 VA4 cells were seeded at 1.2 × 10^4 cells/well in 96‐well white plates. After 24 h, the cells were incubated with the indicated concentrations of compounds for 72 h. The viability was determined as described above.

WI‐26 VA4 cells [2] = test: Collagen ELISA (secreted pro‐collagen I)
[3] = log(inhibitor) vs. response, variable slope (four parameters), concentration in nM

O=C(CC1NCCCC1O)Cn1cnc2cc(Br)c(Cl)cc2c1=O (stereo not shown) [HF, Halofuginone, reference compound] showed an activity at 0.01 µM (WI‐26 VA4 cells [1]; Homo sapiens, WI26VA4, read-out: CellTiter-Glo % of control, 10 nM, Experiment #1, replicates) of 99.6%, an activity at 0.01 µM (WI‐26 VA4 cells [1]; Homo sapiens, WI26VA4, read-out: CellTiter-Glo % of control, 10 nM, Experiment #2, replicates) of 85.1% and an activity at 0.03 µM (WI‐26 VA4 cells [1]; Homo sapiens, WI26VA4, read-out: CellTiter-Glo % of control, 30 nM, Experiment #2, replicates) of 74.1%. The activity at 0.1 µM (WI‐26 VA4 cells [1]; Homo sapiens, WI26VA4, read-out: CellTiter-Glo % of control, 100 nM, Experiment #1, replicates) was 35.7%, the activity at 0.1 µM (WI‐26 VA4 cells [1]; Homo sapiens, WI26VA4, read-out: CellTiter-Glo % of control, 100 nM, Experiment #2, replicates) was 30% and the activity at 0.3 µM (WI‐26 VA4 cells [1]; Homo sapiens, WI26VA4, read-out: CellTiter-Glo % of control, 300 nM, Experiment #2, replicates) was 17.6%. The activity at 1 µM (WI‐26 VA4 cells [1]; Homo sapiens, WI26VA4, read-out: CellTiter-Glo % of control, 1000 nM, Experiment #1, replicates) was 17.1%, the activity at 1 µM (WI‐26 VA4 cells [1]; Homo sapiens, WI26VA4, read-out: CellTiter-Glo % of control, 1000 nM, Experiment #2, replicates) was 29.9% and the activity at 3 µM (WI‐26 VA4 cells [1]; Homo sapiens, WI26VA4, read-out: CellTiter-Glo % of control, 3000 nM, Experiment #2, replicates) was 11%. The activity at 10 µM (WI‐26 VA4 cells [1]; Homo sapiens, WI26VA4, read-out: CellTiter-Glo % of control, 10000 nM, Experiment #1, replicates) was 1.85%, the activity at 10 µM (WI‐26 VA4 cells [1]; Homo sapiens, WI26VA4, read-out: CellTiter-Glo % of control, 10000 nM, Experiment #2, replicates) was 4.64% and the activity at 30 µM (WI‐26 VA4 cells [1]; Homo sapiens, WI26VA4, read-out: CellTiter-Glo % of control, 30000 nM, Experiment #2, replicates) was 1.49%. It also gave an activity at 0.0003 µM (WI‐26 VA4 cells [1]; Homo sapiens, WI26VA4, read-out: CellTiter-Glo % of control, average, 0.3 nM, average) of 103%, an activity at 0.001 µM (WI‐26 VA4 cells [1]; Homo sapiens, WI26VA4, read-out: CellTiter-Glo % of control, average, 1 nM, average) of 102% and an activity at 0.01 µM (WI‐26 VA4 cells [1]; Homo sapiens, WI26VA4, read-out: CellTiter-Glo % of control, average, 10 nM, average) of 92.4%. For the same compound, the activity at 0.03 µM (WI‐26 VA4 cells [1]; Homo sapiens, WI26VA4, read-out: CellTiter-Glo % of control, average, 30 nM, average) was 77.3%, the activity at 0.1 µM (WI‐26 VA4 cells [1]; Homo sapiens, WI26VA4, read-out: CellTiter-Glo % of control, average, 100 nM, average) was 30.6% and the activity at 0.3 µM (WI‐26 VA4 cells [1]; Homo sapiens, WI26VA4, read-out: CellTiter-Glo % of control, average, 300 nM, average) was 18.1%. It also gave an activity at 1 µM (WI‐26 VA4 cells [1]; Homo sapiens, WI26VA4, read-out: CellTiter-Glo % of control, average, 1000 nM, average) of 23.7%, an activity at 3 µM (WI‐26 VA4 cells [1]; Homo sapiens, WI26VA4, read-out: CellTiter-Glo % of control, average, 3000 nM, average) of 10.2% and an activity at 10 µM (WI‐26 VA4 cells [1]; Homo sapiens, WI26VA4, read-out: CellTiter-Glo % of control, average, 10000 nM, average) of 3.39%. The activity at 30 µM (WI‐26 VA4 cells [1]; Homo sapiens, WI26VA4, read-out: CellTiter-Glo % of control, average, 30000 nM, average) was 1.53%, the activity at 100 µM (WI‐26 VA4 cells [1]; Homo sapiens, WI26VA4, read-out: CellTiter-Glo % of control, average, 100000 nM, average) was 0.00424% and the “CellTiter-Glo LogIC50 (best-fit value)” value (WI‐26 VA4 cells [1]; [3]) was 1.708. For the same compound, the IC50 (WI‐26 VA4 cells [2]; Homo sapiens, WI26VA4, 72 h, read-out: IC50 for collagen level, TGF‐β 2 ng/ml, 72 h (Fig 1B)) was 0.0152 µM, the IC50 (WI‐26 VA4 cells [2]; Homo sapiens, WI26VA4, read-out: Collagen IC50 (best-fit value), log(inhibitor) vs. response, variable slope (four parameters) (converted)) was 0.0152 µM and the activity at 1 µM (WI‐26 VA4 cells [2]; Homo sapiens, WI26VA4, read-out: Collagen, % of control (single replicates per experiment), 1000 nM) was 3.91%. It also gave an activity at 0.0003 µM (WI‐26 VA4 cells [2]; Homo sapiens, WI26VA4, read-out: Collagen, % of control, average, 0.3 nM, average) of 96.4%, an activity at 0.001 µM (WI‐26 VA4 cells [2]; Homo sapiens, WI26VA4, read-out: Collagen, % of control, average, 1 nM, average) of 103% and an activity at 0.003 µM (WI‐26 VA4 cells [2]; Homo sapiens, WI26VA4, read-out: Collagen, % of control, average, 3 nM, average) of 101%. The activity at 0.01 µM (WI‐26 VA4 cells [2]; Homo sapiens, WI26VA4, read-out: Collagen, % of control, average, 10 nM, average) was 71.9%, the activity at 0.03 µM (WI‐26 VA4 cells [2]; Homo sapiens, WI26VA4, read-out: Collagen, % of control, average, 30 nM, average) was 21.6% and the activity at 0.1 µM (WI‐26 VA4 cells [2]; Homo sapiens, WI26VA4, read-out: Collagen, % of control, average, 100 nM, average) was 3.57%. For the same compound, the activity at 0.3 µM (WI‐26 VA4 cells [2]; Homo sapiens, WI26VA4, read-out: Collagen, % of control, average, 300 nM, average) was 2.57%, the activity at 1 µM (WI‐26 VA4 cells [2]; Homo sapiens, WI26VA4, read-out: Collagen, % of control, average, 1000 nM, average) was 3.27% and the activity at 0.0003 µM (WI‐26 VA4 cells [2]; Homo sapiens, WI26VA4, read-out: Efficacy, % of control, average, 0.3 nM) was 104%. It also gave an activity at 0.001 µM (WI‐26 VA4 cells [2]; Homo sapiens, WI26VA4, read-out: Efficacy, % of control, average, 1 nM) of 104%, an activity at 0.003 µM (WI‐26 VA4 cells [2]; Homo sapiens, WI26VA4, read-out: Efficacy, % of control, average, 3 nM) of 108% and an activity at 0.01 µM (WI‐26 VA4 cells [2]; Homo sapiens, WI26VA4, read-out: Efficacy, % of control, average, 10 nM) of 73%. The activity at 0.03 µM (WI‐26 VA4 cells [2]; Homo sapiens, WI26VA4, read-out: Efficacy, % of control, average, 30 nM) was 24.9%, the activity at 0.1 µM (WI‐26 VA4 cells [2]; Homo sapiens, WI26VA4, read-out: Efficacy, % of control, average, 100 nM) was 3.73% and the activity at 0.3 µM (WI‐26 VA4 cells [2]; Homo sapiens, WI26VA4, read-out: Efficacy, % of control, average, 300 nM) was 2.78%. It also gave an activity at 1 µM (WI‐26 VA4 cells [2]; Homo sapiens, WI26VA4, read-out: Efficacy, % of control, average, 1000 nM) of 2.54%, an activity at 0.0003 µM (WI‐26 VA4 cells [2]; Homo sapiens, WI26VA4, read-out: Efficacy, % of control, single replicate, 0.3 nM) of 114% and an activity at 0.001 µM (WI‐26 VA4 cells [2]; Homo sapiens, WI26VA4, read-out: Efficacy, % of control, single replicate, 1 nM) of 112%. The activity at 1 µM (WI‐26 VA4 cells [2]; Homo sapiens, WI26VA4, read-out: Efficacy, % of control, single replicate, 1000 nM) was 2.31%, the “Collagen HillSlope (best-fit value)” value (WI‐26 VA4 cells [2]; log(inhibitor) vs. response, variable slope (four parameters)) was -2.183 and the “Collagen LogIC50 (best-fit value)” value (WI‐26 VA4 cells [2]; [3]) was 1.183. For the same compound, the IC50 (WI‐26 VA4 cells [2]; read-out: IC50 for collagen level, TGF‐β 2 ng/ml, 72 h (Fig 1B)) was 0.015 µM.
